# Values quoted from earlier work as cited in US12223643B2, “Machine-learning system for diagnosing disorders and diseases and determining drug responsiveness” (Sanford Burnham Prebys Medical Discovery Institute, priority 2019, dated 2025).
# Tested on: bipolar disorder (BPD) patients
structure (smiles),measurement,value
O=C([O-])[O-].[Li+].[Li+] [Lithium carbonate],patients respond to lithium treatment,approximately 35%
same,risk of suicide,reduce the risk of suicide
